Data as given in patent US6872751B2, “Composition and method for augmenting or restoring the production of fetal protein in patient in need thereof” (Centre National de la Recherche Scientifique - CNRS, priority 1999, dated 2005).
“Also recorded” adds a separate entry of the source.

How the values were obtained:
[1] = tested on: utrophin; experiment: Utrophin immunofluorescence in XLT (mdx) myotubes; assay type: cell-based, mouse; conditions: 48 hours
Description: (§1) A, a-h: normal cell line (NXTL). B, a′-h′: mdx cell line (XLT). The cell cultures were treated by exposure of the differentiated myotubes to drugs for 48 hours. A, a′: control cultures. B, b′: L-arginine(2.10^−3M). c, c′: SIN-1 (10^−3 M). d, d′: SIN-I (10^−3 M) +L-arginine (10^−3 M). e, e′: D-arginine (10^−3 M). f, f′: L-arginine (10^−3 M)+OQD (10^−5 M). g, g′: L-NMMA (10^−3 M). h, h′: hydroxyurea (10^−4 M).
(§2) Myotubes were obtained from normal cell line (NXLT) and mdx cell line as described by Liberona et al (1998, Muscle & Nerve, 21:902-909), and C2 myotubes as described by Inestrosa et al. (1983, Exp. Cell Res., 147:393-405).
(§3) In vitro. The cultures were treated as described previously with the exception of the second antibody labelled with fluoroscein which was diluted to 1/100 vol/vol. The incubation time was 2 hours for the first and second antibody.

[2] = tested on: utrophin; experiment: Utrophin immunofluorescence in NXLT (normal) myotubes; assay type: cell-based, mouse; conditions: 48 hours
Description: as §1, §2, §3

[3] = tested on: utrophin; experiment: Utrophin immunofluorescence in primary rat myotubes; assay type: cell-based
Description: as §3

[4] = tested on: utrophin; experiment: Utrophin immunofluorescence in C2 myotubes; assay type: cell-based, mouse; conditions: C2 mice myotubes
Description: Myotubes were obtained from normal cell line (NXLT) and mdx cell line as described by Liberona et al (1998, Muscle & Nerve, 21:902-909), and C2 myotubes as described by Inestrosa et al. (1983, Exp. Cell Res., 147:393-405). In vitro. The cultures were treated as described previously with the exception of the second antibody labelled with fluoroscein which was diluted to 1/100 vol/vol. The incubation time was 2 hours for the first and second antibody.

[5] = tested on: utrophin; experiment: Utrophin immunolocalisation in muscle of mdx mice treated chronically with L-arginine; assay type: in vivo, mouse; conditions: 200 mg/kg daily intra-peritoneal for three weeks, thigh muscles
Description: (§4) Three normal, adult mice aged 18 months (C57 BL/6 line) and three mdx mice were given a daily intra-peritoneal injection of 200 mg/kg L-arginine for three weeks. Two other groups of three adult mice were used as controls and were given a daily injection of physiological serum.
(§5) The mice were sacrificed by ether anaesthesia, the biceps femoris and the semi-tendinous muscles were quickly dissected from the hind limbs of each animal and frozen in liquid nitrogen.
(§6) In vivo. After cold fixing in methanol (−20° C. for 10 minutes) sections of […] were incubated for two hours with utrophin specific monoclonal antibody (NCL-DRP 2, Novacastra) (1/10 vol/vol) in PBS containing 0.1% saponin and 0.2% bovine albumin. The second antibody labelled with fluoroscein (N 1031, Amersham) was diluted (1/4000 vol/vol) in PBS containing 0.1% saponin and incubated for one hour.

[6] = tested on: utrophin; experiment: Utrophin immunoblot of NXLT myotubes; assay type: cell-based, mouse; conditions: 48 hours, 2.10^-3 M
Description: (§7) Imunoblot analysis of utrophin was conducted under control conditions (CTRL) and after 48 hours treatment with 2.10^−3 M L-arginine (L-arg).
as §2
(§8) The myotubes obtained from the NXLT, XLT and C2 lines were homogenized using a Polytron (Kinematica) in 10 mM Tris-HCl pH 6.8, 1% Triton X-100, 1% SOS, 0.5% sodium deoxycholate on ice. The quantity of total proteins was determined following the protocol for the bicinchoninic acid protein test (BCA, Pierce). Equivalent quantities of protein were separated by SOS-Page on 5% gel, then electrotransferred onto a nitrocellulose membrane (Schleicher & Schuell). The membranes were then incubated with the same monoclonal antibody directed against utrophin used for the immunofluorescence techniques (1/250 vol/vol). The fixed antibodies were detected with a Sanofi anti-mouse goat secondary antibody (1/5000 vol/vol) bound to horseradish peroxydase and developed by chemioluminescence reaction (ECL, Amersham Pharmacy Biotech).

[7] = tested on: utrophin; experiment: Utrophin immunoblot of XLT (mdx) myotubes; assay type: cell-based, mouse; conditions: 48 hours, 2.10^-3 M
Description: as §7, §2, §8

[8] = tested on: utrophin; experiment: Utrophin immunolocalisation in muscle of normal adult mice treated chronically with L-arginine; assay type: in vivo, mouse; conditions: normal adult C57 BL/6 mice, 200 mg/kg daily intra-peritoneal for three weeks, thigh muscles
Description: as §4, §5, §6

[9] = tested on: utrophin; experiment: Utrophin immunoblot of C2 myotubes; assay type: cell-based, mouse; conditions: 48 hours, 2.10^-3 M
Description: as §7, §2, §8

[10] = ODQ 10^-5 M with L-arginine 10^-3 M

NC(=O)NO [hydroxyurea]
utrophin labelling ([1]; 10^-4 M): increases utrophin labelling in remarkable manner
utrophin labelling ([2]; 10^-4 M): increases utrophin labelling in remarkable manner

O=c1onc2cnc3ccccc3n12 [ODQ]
utrophin synthesis induced by NO (labelling) [1, 10]: inhibited
utrophin synthesis induced by NO (labelling) [2, 10]: inhibited

N=C(N)NCCC[C@@H](N)C(=O)O [D-arginine]
utrophin labelling ([1]; 10^-3 M): absence of any effect
utrophin labelling ([2]; 10^-3 M): absence of any effect

CNC(=N)NCCC[C@H](N)C(=O)O [L-NMMA, N^G-methyl-L-arginine]
utrophin labelling ([1]; 10^-3 M): basal level of utrophin
utrophin labelling ([2]; 10^-3 M): basal level of utrophin

N=c1c[n+](N2CCOCC2)[n-]o1 [SIN-1, 3-morpholino-sydnonimine]
utrophin labelling [3]: increased labelling of utrophin was also observed to a lesser extent
utrophin labelling [4]: increased labelling of utrophin was also observed to a lesser extent
utrophin labelling ([1]; 10^-3 M): utrophin labelling increased
utrophin labelling ([2]; 10^-3 M): utrophin labelling increased

N=C(N)NCCCC(N)C(=O)O [L-arginine, 2-amino-5-guanidinovaleric acid]
utrophin at the sarcolemma (immunolocalisation) [5]: increase in utrophin levels under the sarcolenima; also recorded: increased the utrophin level already present in the sarcolemma
utrophin labelling [3]: increased labelling of utrophin was also observed to a lesser extent
utrophin labelling [4]: increased labelling of utrophin was also observed to a lesser extent
utrophin level (Western blot) [6]: evident increase of utrophin
utrophin level (Western blot) [7]: evident increase of utrophin
utrophin labelling ([1]; 2.10^-3 M): utrophin labelling increased
utrophin at the sarcolemma (immunolocalisation) [8]: utrophin is seen under the sarcolemma; also recorded: utrophin was detected underneath the sarcolemma
utrophin level (Western blot) [9]: increase in utrophin after treatment with L-arginine was confirmed
utrophin labelling ([2]; 2.10^-3 M): utrophin labelling increased
